ChEMBL document CHEMBL5038589, “Design, Synthesis, and Structure-Activity Relationship of N-Aryl-N'-(thiophen-2-yl)thiourea Derivatives as Novel and Specific Human TLR1/2 Agonists for Potential Cancer Immunotherapy” (J Med Chem, 2021)
The source made the active and inactive calls. The rule behind the calls is not given here.

How the values were obtained:
THP-1 [1] = assay: Upregulation of MyD88 expression in human PMA-differentiated THP-1 cells in presence of T6167923 at 10 uM incubated for 2 hrs by western blot analysis; type: functional, cell-based
PBMC [2] = assay: Induction of IL-1beta secretion in human PBMC incubated for 24 hrs by ELISA method; type: functional, cell-based; details: dose 0.01-10 µM
CD3-positive T cell [3] = assay: Immunostimulatory activity in human CD3+ T cells at 0.1 to 10 uM incubated for 48 hrs by flow cytometry analysis; type: functional, cell-based; details: dose 0.1-10 µM
THP-1 [4] = assay: Upregulation of TLR1 expression in human THP-1 cells at 20 uM by immunoprecipitation method; type: functional, cell-based
THP-1 [5] = assay: Upregulation of MyD88 expression in human PMA-differentiated THP-1 cells assessed as induction of IKKbeta phosphorylation at 10 uM incubated for 2 hrs by Western blot analysis; type: functional, cell-based
[6] = molecular target: Toll-like receptor 1/2 (Homo sapiens) (UniProt O60603+Q15399); assay: Agonist activity at TLR1/TLR2 in human THP-1 cells assessed as induction of TLR1/TLR2 dimerization at 20 uM incubated for 12 hrs by coimmunoprecipitation method; type: cell-based; details: filed as agonist
[7] = Immunostimulatory activity in human CD8+ T cells assessed as fold increase at 0.1 to 10 uM incubated for 48 hrs by flow cytometry analysis; type: functional, CD8-positive T cell; details: dose 0.1-10 µM
THP-1 [8] = assay: Upregulation of TLR6 expression in human THP-1 cells at 20 uM by immunoprecipitation method; type: functional, cell-based
Toll-like receptor 2 [9] = molecular target: T1, Toll-like receptor 2 (Homo sapiens, UniProt O60603); assay: Agonist activity at TLR2 in HEK-Blue cells assessed as fold increase in activity 0.0015 to 10 uM incubated for 24 hrs by Quanti-Blue based SEAP assay; type: cell-based; details: HEK-Blue hTLR2, dose 0.0015-10 µM
THP-1 [10] = assay: Upregulation of TLR2 expression in human THP-1 cells at 20 uM by immunoprecipitation method; type: functional, cell-based
MCF7 [11] = assay: Induction of apoptosis in human MCF7 cells upto 100 uM by microplate reader analysis; type: functional, cell-based; details: dose microM <=100
Toll-like receptor 2 [12] = molecular target: T1, Toll-like receptor 2; assay: Binding affinity to recombinant human TLR2 expressed in H5 cells by surface plasmon resonance method
MCF7 [13] = assay: Induction of apoptosis in human MCF7 cells cocultured with PMA-differentiated THP-1 cells assessed as early apoptotic cells at 10 uM measured after 24 hrs by annexin V-FITC/PI staining based flow cytometry (reference value: 7.87 %); type: functional
Macrophage [14] = assay: Induction of TNFalpha secretion in TLR2-/- C57BL/6 mouse peritoneal macrophages at 0.01 to 10 uM incubated for 24 hrs by ELISA method; type: functional, cell-based; details: dose 0.01-10 µM
[15] = Cytotoxicity against HEK-Blue TLR2 cells incubated for 24 hrs by CCK-8 assay; type: toxicity, cell-based, HEK-Blue hTLR2; details: human
Monocyte = assay: Immunostimulatory activity in human monocytes assessed as fold increase at 0.1 to 10 uM incubated for 48 hrs by flow cytometry analysis; type: functional; details: dose 0.1-10 µM
PBMC [16] = assay: Induction of TNFalpha secretion in human PBMC incubated for 24 hrs by ELISA method; type: functional, cell-based; details: dose 0.01-10 µM
Macrophage [17] = assay: Induction of IL-6 secretion in TLR2-/- C57BL/6 mouse peritoneal macrophages at 0.01 to 10 uM incubated for 24 hrs by ELISA method; type: functional, cell-based; details: dose 0.01-10 µM
CD4+ve Th = assay: Immunostimulatory activity in human CD4+ T cells at 0.1 to 10 uM incubated for 48 hrs by flow cytometry analysis; type: functional, cell-based; details: dose 0.1-10 µM
[18] = molecular target: Toll-like receptor 8 (Homo sapiens) (UniProt Q9NR97); assay: Agonist activity at TLR8 in HEK-Blue hTLR8 cells at 0.1 to 100 uM incubated for 24 hrs by Quanti-Blue based SEAP assay; type: cell-based; details: dose 0.1-100 µM
HCT-116 [19] = assay: Induction of apoptosis in human HCT-116 cells cocultured with PMA-differentiated THP-1 cells assessed as late apoptotic cells at 10 uM measured after 24 hrs using annexin V-FITC/PI staining based flow cytometry; type: functional
HEK-Blue hTLR2 = assay: Upregulation of TLR2 expression in HEK-Blue TLR2 cells incubated for 24 hrs by Western blot analysis; type: functional, cell-based; details: Homo sapiens, dose 0.01-50 µM
Toll-like receptor 2 [20] = molecular target: T1, Toll-like receptor 2; assay: Agonist activity at TLR2 in HEK-Blue hTLR2 cells at 0.2 uM incubated for 24 hrs in presence of anti-hTLR2-IgA antibodies measured by Quanti-Blue based SEAP assay; type: cell-based; details: filed as agonist
THP-1 [21] = assay: Upregulation of MyD88 expression in human PMA-differentiated THP-1 cells in presence of T6167923 at 10 uM after 30 mins by western blot analysis; type: functional, cell-based
HCT-116 [22] = assay: Induction of apoptosis in human HCT-116 cells cocultured with PMA-differentiated THP-1 cells assessed as early apoptotic cells at 10 uM measured after 24 hrs using annexin V-FITC/PI staining based flow cytometry; type: functional
THP-1 [23] = assay: Upregulation of TLR2 expression in human THP-1 cells at 0.01 to 50 uM incubated for 24 hrs by Western blot analysis; type: functional, cell-based; details: dose 0.01-50 µM
[24] = molecular target: Toll-like receptor 4 (Homo sapiens) (UniProt O00206); assay: Agonist activity at TLR4 in HEK-Blue hTLR4 cells at 0.1 to 100 uM incubated for 24 hrs by Quanti-Blue based SEAP assay; type: cell-based; details: dose 0.1-100 µM
CD3-positive T cell [25] = assay: Immunostimulatory activity in mouse C57 spleen CD3+ T cells in assessed as fold increase at 0.1 to 10 uM incubated for 48 hrs by flow cytometry analysis; type: functional, cell-based; details: dose 0.1-10 µM
Toll-like receptor 2 [26] = molecular target: T1, Toll-like receptor 2; assay: Agonist activity at TLR2 in HEK-Blue cells incubated for 24 hrs by Quanti-Blue based SEAP assay; type: cell-based; details: HEK-Blue hTLR2, filed as agonist
THP-1 [27] = assay: Induction of TNFalpha secretion in TLR2 knock down human THP-1 cells at 20 to 40 uM incubated for 24 hrs by ELISA method; type: functional, cell-based; details: dose 20-40 µM
[28] = molecular target: Toll-like receptor 3 (Homo sapiens) (UniProt O15455); assay: Agonist activity at TLR3 in HEK-Blue hTLR3 cells at 0.1 to 100 uM incubated for 24 hrs by Quanti-Blue based SEAP assay; type: cell-based; details: dose 0.1-100 µM
THP-1 [29] = assay: Induction of ERK phosphorylation in human PMA-differentiated THP-1 cells at 10 uM incubated for 2 hrs by Western blot analysis; type: functional, cell-based
HCT-116 [30] = assay: Induction of apoptosis in human HCT-116 cells upto 100 uM by microplate reader analysis; type: functional, cell-based; details: dose microM <=100
THP-1 [31] = assay: Upregulation of MyD88 expression in human PMA-differentiated THP-1 cells assessed as downregulation of IkappaBalpha at 10 uM incubated for 2 hrs by Western blot analysis; type: functional, cell-based
THP-1 [32] = assay: Induction of JNK phosphorylation in human PMA-differentiated THP-1 cells at 10 uM incubated for 2 hrs by Western blot analysis; type: functional, cell-based
[33] = Cytotoxicity against human PBMC upto 100 uM incubated for 24 hrs by CCK-8 assay; type: toxicity, cell-based
THP-1 [34] = assay: Upregulation of MyD88 expression in human PMA-differentiated THP-1 cells assessed as induction of p38 phosphorylation at 10 uM incubated for 2 hrs by Western blot analysis; type: functional, cell-based
[35] = molecular target: Toll-like receptor 5 (Homo sapiens) (UniProt O60602); assay: Agonist activity at TLR5 in HEK-Blue hTLR5 cells at 0.1 to 100 uM incubated for 24 hrs by Quanti-Blue based SEAP assay; type: cell-based; details: dose 0.1-100 µM
Chain of Toll-like receptor 5 (Homo sapiens) (O60602 whole entry): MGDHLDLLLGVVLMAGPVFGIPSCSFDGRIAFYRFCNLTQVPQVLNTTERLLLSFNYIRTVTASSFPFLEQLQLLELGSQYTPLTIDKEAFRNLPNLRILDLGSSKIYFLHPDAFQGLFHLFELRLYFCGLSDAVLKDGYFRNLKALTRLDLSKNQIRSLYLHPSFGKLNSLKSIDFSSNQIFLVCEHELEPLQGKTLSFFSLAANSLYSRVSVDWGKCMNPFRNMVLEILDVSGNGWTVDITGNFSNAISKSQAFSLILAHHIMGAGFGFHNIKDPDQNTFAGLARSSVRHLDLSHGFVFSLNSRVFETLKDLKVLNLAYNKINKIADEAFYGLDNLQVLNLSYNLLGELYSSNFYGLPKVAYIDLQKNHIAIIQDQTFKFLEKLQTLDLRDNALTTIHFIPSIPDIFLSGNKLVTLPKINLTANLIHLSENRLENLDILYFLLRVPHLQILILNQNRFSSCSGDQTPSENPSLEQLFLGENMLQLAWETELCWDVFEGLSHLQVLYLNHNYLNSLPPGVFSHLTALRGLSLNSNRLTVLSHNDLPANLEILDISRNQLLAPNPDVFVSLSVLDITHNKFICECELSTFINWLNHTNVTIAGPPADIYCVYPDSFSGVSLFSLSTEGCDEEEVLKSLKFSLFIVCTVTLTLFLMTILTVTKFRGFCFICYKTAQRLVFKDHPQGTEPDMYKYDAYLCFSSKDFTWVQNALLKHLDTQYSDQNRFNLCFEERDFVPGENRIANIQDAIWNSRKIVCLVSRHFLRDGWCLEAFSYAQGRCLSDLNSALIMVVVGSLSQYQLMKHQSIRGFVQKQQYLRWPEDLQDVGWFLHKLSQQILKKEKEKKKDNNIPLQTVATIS

T1 sequence (O60603 whole entry): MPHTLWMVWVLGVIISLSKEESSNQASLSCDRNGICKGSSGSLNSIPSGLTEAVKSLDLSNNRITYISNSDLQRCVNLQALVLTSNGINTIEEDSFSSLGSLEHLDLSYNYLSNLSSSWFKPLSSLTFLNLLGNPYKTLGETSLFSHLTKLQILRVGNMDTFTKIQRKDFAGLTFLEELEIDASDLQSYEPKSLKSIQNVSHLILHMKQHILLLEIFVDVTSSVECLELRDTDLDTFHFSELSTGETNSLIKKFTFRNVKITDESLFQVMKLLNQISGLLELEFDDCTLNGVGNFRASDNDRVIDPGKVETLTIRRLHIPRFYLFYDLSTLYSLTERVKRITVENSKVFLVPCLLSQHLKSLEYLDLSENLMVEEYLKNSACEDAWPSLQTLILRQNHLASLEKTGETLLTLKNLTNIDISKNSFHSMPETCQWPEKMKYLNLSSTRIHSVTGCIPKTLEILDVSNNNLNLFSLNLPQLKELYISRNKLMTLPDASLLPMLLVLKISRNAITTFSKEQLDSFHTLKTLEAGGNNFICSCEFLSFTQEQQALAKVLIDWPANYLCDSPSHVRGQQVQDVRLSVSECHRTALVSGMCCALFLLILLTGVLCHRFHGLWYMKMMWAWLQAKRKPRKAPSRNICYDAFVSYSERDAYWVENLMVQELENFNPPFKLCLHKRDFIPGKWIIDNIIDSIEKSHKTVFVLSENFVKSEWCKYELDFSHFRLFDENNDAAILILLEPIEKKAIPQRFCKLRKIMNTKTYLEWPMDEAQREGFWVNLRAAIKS
Chain of Toll-like receptor 4 (Homo sapiens) (O00206 whole entry): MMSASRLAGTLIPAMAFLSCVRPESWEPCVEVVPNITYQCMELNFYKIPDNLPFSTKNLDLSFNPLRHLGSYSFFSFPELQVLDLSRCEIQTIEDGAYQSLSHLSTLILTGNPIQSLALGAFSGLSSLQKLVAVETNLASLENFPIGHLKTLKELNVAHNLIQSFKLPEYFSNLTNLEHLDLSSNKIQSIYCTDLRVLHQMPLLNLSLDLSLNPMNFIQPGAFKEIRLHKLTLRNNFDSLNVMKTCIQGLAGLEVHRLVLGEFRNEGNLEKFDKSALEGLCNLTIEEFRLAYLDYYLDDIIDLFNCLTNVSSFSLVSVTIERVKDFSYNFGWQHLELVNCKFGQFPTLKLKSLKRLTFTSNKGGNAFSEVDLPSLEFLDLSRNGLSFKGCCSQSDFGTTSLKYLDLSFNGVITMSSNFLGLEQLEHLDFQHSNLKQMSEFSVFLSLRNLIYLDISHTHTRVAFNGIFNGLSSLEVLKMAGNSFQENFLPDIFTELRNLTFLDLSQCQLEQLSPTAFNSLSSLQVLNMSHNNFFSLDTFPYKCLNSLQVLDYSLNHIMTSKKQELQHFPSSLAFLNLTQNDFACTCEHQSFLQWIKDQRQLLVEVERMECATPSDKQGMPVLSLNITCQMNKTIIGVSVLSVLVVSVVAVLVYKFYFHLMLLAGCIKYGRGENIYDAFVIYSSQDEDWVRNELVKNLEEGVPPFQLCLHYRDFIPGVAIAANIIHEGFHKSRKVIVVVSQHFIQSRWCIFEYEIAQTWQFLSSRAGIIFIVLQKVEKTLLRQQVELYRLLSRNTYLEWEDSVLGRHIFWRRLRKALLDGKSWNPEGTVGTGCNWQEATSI
Chain of Toll-like receptor 3 (Homo sapiens) (O15455 whole entry): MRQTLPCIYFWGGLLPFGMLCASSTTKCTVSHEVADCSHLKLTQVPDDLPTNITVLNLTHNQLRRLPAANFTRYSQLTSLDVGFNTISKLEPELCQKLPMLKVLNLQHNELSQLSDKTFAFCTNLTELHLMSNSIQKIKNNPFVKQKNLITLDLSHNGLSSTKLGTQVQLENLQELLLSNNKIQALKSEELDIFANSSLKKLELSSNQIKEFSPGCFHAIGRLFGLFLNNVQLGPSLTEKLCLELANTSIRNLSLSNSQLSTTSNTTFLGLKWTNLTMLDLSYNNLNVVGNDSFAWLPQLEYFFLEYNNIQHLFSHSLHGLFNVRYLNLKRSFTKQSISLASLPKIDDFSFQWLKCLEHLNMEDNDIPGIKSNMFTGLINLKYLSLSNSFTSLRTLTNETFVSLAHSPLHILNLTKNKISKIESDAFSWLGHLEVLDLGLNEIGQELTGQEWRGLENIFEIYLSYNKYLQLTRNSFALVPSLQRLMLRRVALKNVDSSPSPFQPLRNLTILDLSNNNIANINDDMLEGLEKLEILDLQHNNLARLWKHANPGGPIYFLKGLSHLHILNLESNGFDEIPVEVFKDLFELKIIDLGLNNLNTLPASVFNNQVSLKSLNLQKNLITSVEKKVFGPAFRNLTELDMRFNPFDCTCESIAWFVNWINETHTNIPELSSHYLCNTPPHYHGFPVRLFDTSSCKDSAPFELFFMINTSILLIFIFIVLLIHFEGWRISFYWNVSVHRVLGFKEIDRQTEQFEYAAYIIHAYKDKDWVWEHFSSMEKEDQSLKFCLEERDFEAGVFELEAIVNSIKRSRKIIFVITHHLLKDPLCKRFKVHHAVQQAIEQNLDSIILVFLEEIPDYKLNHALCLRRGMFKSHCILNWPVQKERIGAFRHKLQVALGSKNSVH
Chain of Toll-like receptor 8 (Homo sapiens) (Q9NR97 whole entry): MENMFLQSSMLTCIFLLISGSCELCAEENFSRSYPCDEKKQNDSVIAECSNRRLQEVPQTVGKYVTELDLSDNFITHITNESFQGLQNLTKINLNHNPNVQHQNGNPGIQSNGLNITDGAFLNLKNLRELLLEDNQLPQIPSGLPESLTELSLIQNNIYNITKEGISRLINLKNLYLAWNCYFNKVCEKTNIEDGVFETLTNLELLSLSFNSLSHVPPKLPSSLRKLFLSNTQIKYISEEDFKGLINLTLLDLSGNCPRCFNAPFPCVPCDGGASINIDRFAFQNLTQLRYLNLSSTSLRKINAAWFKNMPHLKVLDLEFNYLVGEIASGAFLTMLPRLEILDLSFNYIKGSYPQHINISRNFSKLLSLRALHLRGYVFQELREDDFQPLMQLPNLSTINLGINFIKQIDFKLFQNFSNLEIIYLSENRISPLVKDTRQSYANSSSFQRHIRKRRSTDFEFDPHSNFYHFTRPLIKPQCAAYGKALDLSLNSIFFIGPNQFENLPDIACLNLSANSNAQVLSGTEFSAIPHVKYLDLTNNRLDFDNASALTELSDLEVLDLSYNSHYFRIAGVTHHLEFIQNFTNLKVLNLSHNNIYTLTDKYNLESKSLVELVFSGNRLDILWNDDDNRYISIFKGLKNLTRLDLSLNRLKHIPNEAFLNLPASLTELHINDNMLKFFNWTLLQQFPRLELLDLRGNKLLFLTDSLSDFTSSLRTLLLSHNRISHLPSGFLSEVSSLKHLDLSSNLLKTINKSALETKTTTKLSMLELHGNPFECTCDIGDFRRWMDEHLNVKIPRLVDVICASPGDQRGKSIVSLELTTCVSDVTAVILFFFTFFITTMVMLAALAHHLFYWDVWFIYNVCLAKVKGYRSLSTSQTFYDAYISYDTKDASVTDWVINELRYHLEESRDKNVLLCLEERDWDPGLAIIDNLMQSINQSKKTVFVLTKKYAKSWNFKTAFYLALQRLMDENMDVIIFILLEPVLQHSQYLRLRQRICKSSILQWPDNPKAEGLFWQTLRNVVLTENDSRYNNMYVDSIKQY

Compound: CC(C)OC(=O)c1c(NC(=S)Nc2ccc(F)c3ccccc23)sc2c1CCC2
- Activity (THP-1 [1]): inactive
- Activity (PBMC [2]): Dose-Dependent Effect
- Activity (CD3-positive T cell [3]): Active
- Activity (THP-1 [4]): Active
- Activity (THP-1 [5]): Active
- Activity [6]: Active
- fold change (FC) [7]: 2
- Activity (THP-1 [8]): inactive
- fold change (FC) (Toll-like receptor 2 [9]): 370
- Activity (THP-1 [10]): Active
- Activity (MCF7 [11]): inactive
- Kd (Toll-like receptor 2 [12]): 0.053 µM
- Activity (MCF7 [13]): 16.4%
- Activity (Macrophage [14]): inactive
- CC50 at 24 h [15]: > 100 µM
- fold change (FC) (Monocyte): 2
- Activity (PBMC [16]): Dose-Dependent Effect
- Activity (Macrophage [17]): inactive
- Activity (CD4+ve Th): Active
- Activity [18]: inactive
- Activity (HCT-116 [19]): 14.3%
- Activity (HEK-Blue hTLR2): Dose-Dependent Effect
- Activity (Toll-like receptor 2 [20]): Active
- Activity (THP-1 [21]): Active
- Activity (HCT-116 [22]): 11.5%
- Activity (THP-1 [23]): Active
- Activity [24]: inactive
- Activity (CD3-positive T cell [25]): inactive
- Activity (Toll-like receptor 2 [26]): Dose-Dependent Effect
- Activity (THP-1 [27]): inactive
- Activity [28]: inactive
- Activity (THP-1 [29]): inactive
- Activity (HCT-116 [30]): inactive
- Activity (THP-1 [31]): Active
- Activity (THP-1 [32]): inactive
- Activity [33]: Non-Toxic
- Activity (THP-1 [34]): Active
- Activity [35]: inactive
